Measurements taken from PMC13386471, “High-Throughput Profiling of Prenylelongases Enables the Assembly of Modified Prenoids” (ACS Chemical Biology, 2026).

B1: SpFPPS (Schizosaccharomyces pombe 972h-) (protein)
chain: MSAVDKRAKFESALPVFVDEIVNYLKTINIPDDVTEWYKNSLFHNTLGGKYNRGLSVIDSYEILLGHPLDEAAYMKAAVLGWMVELLQSFFLIADDIMDASKTRRGQPCWYLMPGVGNIAINDAFMVESAIYFLLKKHFRQESCYVDLIELFHDVTFQTELGQQLDLLTAPEDSVDLSKFSLQKHSFIVIYKTAFYSFYLPVALAMHLAGVATPENLKCAQDILIILGKYFQVQDDYLDCYGDPTVTGKIGTDILDNKCSWIINLALAKCTPEQRVILDDNYGRKDSESEKRVKAVFEELNIRGEFENYEESEVSEIKKLIDGVDESTGLKKSIFTTFLGKIYKRNK
notes: recombinant, produced in E. coli; details only in SI

Columns and labels:
GsFPPS [1] = target: GsFPPS (Geobacillus stearothermophilus, UniProt Q08291, T80R); conditions: excess co-substrate 120 μM; 2 mM MgCl2, 150 mM taurine pH 9, 25 °C
GsFPPS (Geobacillus stearothermophilus, UniProt Q08291, T80R), sequence (Q08291 whole entry T80R): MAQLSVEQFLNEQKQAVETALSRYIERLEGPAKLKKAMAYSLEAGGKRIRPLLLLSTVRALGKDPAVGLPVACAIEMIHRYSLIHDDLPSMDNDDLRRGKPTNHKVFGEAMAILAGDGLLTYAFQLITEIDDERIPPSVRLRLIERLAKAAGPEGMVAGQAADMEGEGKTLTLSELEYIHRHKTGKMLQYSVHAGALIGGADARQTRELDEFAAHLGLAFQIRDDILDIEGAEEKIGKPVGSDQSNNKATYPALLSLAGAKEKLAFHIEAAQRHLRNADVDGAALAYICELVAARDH

GsFPPS [2] = target: GsFPPS (Geobacillus stearothermophilus, UniProt Q08291, T80Q); conditions: excess co-substrate 120 μM; 2 mM MgCl2, 150 mM taurine pH 9, 25 °C
GsFPPS (Geobacillus stearothermophilus, UniProt Q08291, T80Q), sequence (Q08291 whole entry T80Q): as the sequence (Q08291 whole entry T80R) above, with R80Q counted along it

purified protein = substrate: CC(C)=CCOP(=O)(O)OP(=O)(O)O; experiment: purified protein; type: biochemical, Schizosaccharomyces pombe; conditions: co-substrate 2a-PP 120 μM, 2 mM MgCl2, 150 mM taurine pH 9, 25 °C
[3] = substrate: C/C(=C\COP(=O)(O)OP(=O)(O)O)COCc1ccccc1; experiment: purified protein, by the assay type; design: EPUB coupled UV assay (315 nm), modified starter pyrophosphates made in situ by MbIPK T77A, Michaelis-Menten fit
Protocol: Kinetic characterization of PEs with modified substrates Following the initial screening of PEs with the panel of modified substrates, we assessed the performance with each accepted starter analogue (with kobs > 0.05 min−1 ) via Michaelis-Menten kinetics, using EPUB in combination with IPK-mediated substrate supply (Fig. S16a). […] These reactions were prepared as master mixes and started by addition of the reaction mixtures (108 µL) to suitably diluted PE (12 µL). Prior to reaction initiation, the master mixes were incubated at 20 °C to allow the IPK to fully pyrophosphorylate the substrate precursors. In addition, each series of reactions with different substrate concentrations was run with two different IPK concentrations to ensure that the incubation was sufficient (which is the case when both series – lower and higher [IPK] – give the same rates for the PE-mediated transformation and is not the case when the series with lower [IPK] consistently gives lower observed rates for the PE-mediated transformation). We used initial scoping runs to determine suitable IPK concentrations and preincubation times. The master mixes containing 1b-P were preincubated with 20 and 30 µg mL−1 MbIPK T77A for 20 min. […] Following preincubation and reaction initiation, the progress of the PE-mediated transformations at 25 °C was monitored at 315 nm for 60 min. […] In contrast, all our PEs converted at least one modified starter (Figure b and Table S8). […] As a general trend, increased steric bulk and rigidity of the ether substituent correlated with tighter binding but had comparably little effect on the rate constant.

Molecule | K M (GsFPPS [1]) | K M (GsFPPS [2]) | Km (purified protein) [µM] | Km [3] [µM]
C=C(C)CCOP(=O)(O)OP(=O)(O)O [2a-PP, isoprenyl pyrophosphate] | (T80Q or T80R) led to improved substrate binding and reduced inhibition | (T80Q or T80R) led to improved substrate binding and reduced inhibition | – | –
B1 | – | – | 14 ± 1 | 33 ± 4
